The text below walks through data of US10336730B2, “Substituted glycine derived FXIA inhibitors” (BRISTOL-MYERS SQUIBB COMPANY, priority 2015, dated 2019).

Assay type in all cases: biochemical
Test [1] concerns the target T1, purified human plasma kallikrein (Homo sapiens, UniProt P03952).
T1 construct: purchased Enzyme Research Laboratories
Briefly: Plasma kallikrein enzyme inhibition assay (chromogenic substrate S-2302), Ki. The following applies: substrate S-2302, pH 7.5. As to the method:
The effectiveness of compounds of the present invention as inhibitors of the coagulation Factors XIa, VIIa, IXa, Xa, XIIa, plasma kallikrein, thrombin, chemytrypsin or trypsin can be determined using a relevant purified serine protease, respectively, and an appropriate synthetic substrate. The rate of hydrolysis of the chromogenic or fluorogenic substrate by the relevant serine protease was measured both in the absence and presence of compounds of the present invention. […] A decrease in the rate of absorbance or fluorescence change in the presence of inhibitor is indicative of enzyme inhibition. Such methods are known to one skilled in the art. The results of this assay are expressed as the inhibitory constant, Ki.
Plasma kallikrein determinations were made in 0.1 M sodium phosphate buffer at a pH of 7.5 containing 0.1-0.2 M sodium chloride and 0.5% PEG 8000. Determinations were made using purified human plasma kallikrein (Enzyme Research Laboratories) at a final assay concentration of […] and the synthetic substrate S-2302 (H-(D)-Pro-Phe-Arg-pNA; CHROMOGENIX®) at a concentration of 0.00008-0.0004 M.
Values of Ki were determined by allowing the protease to react with the substrate in the presence of the inhibitor. Reactions were allowed to go for periods of 20-180 minutes (depending on the protease) and the velocities (rate of absorbance or fluorescence change versus time) were measured. The following relationships were used to calculate Ki values: (Vmax*S)/(Km+S) (vo−vs)/vs=I/(Ki*(1+S/Km)) for a competitive inhibitor with one binding site; or vs/vo=A+(B−A)/(1+(IC50/(I)^n)); and Ki=IC50/(1+S/Km) for a competitive inhibitor where: […]

The subject of test [2] is citrated normal human plasma. Kind of test: Activated Partial Thromboplastin Time (aPTT) plasma clotting assay. The following applies: inhibitor concentration required to increase the clotting time by 1.5 times. From the text:
The effectiveness of compounds of the present invention as inhibitors of coagulation can be determined using a standard or modified clotting assay. An increase in the plasma clotting time in the presence of inhibitor is indicative of anticoagulation. Relative clotting time is the clotting time in the presence of an inhibitor divided by the clotting time in the absence of an inhibitor. The results of this assay may be expressed as IC1.5× or IC2×, the inhibitor concentration required to increase the clotting time by 1.5 times or 2 times, respectively, relative to the clotting time in the absence of the inhibitor. The IC1.5× or IC2× is found by linear interpolation from relative clotting time versus inhibitor concentration plots using inhibitor concentrations that span the IC1.5× or IC2×.
Clotting times are determined using citrated normal human plasma as well as plasma obtained from a number of laboratory animal species (e.g., rat, or rabbit). A compound is diluted into plasma beginning with a 10 mM DMSO stock solution. The final concentration of DMSO is less than 2%. Plasma clotting assays are performed in an automated coagulation analyzer (Sysmex, Dade-Behring, Illinois). Similarly, clotting times can be determined from laboratory animal species or humans dosed with compounds of the invention.
Activated Partial Thromboplastin Time (aPTT) is determined using ACTIN® FSL (Dade-Behring, Illinois) following the directions in the package insert. Plasma (0.05 mL) is warmed to 37° C. for 1 minute. ACTIN® FSL (0.05 mL) is added to the plasma and incubated for an additional 2 to 5 minutes. Calcium chloride (25 mM, 0.05 mL) is added to the reaction to initiate coagulation. The clotting time is the time in seconds from the moment calcium chloride is added until a clot is detected.

Test [3] addresses T2, purified human Factor XIa (Homo sapiens, UniProt P03951).
T2 construct: purchased Haematologic Technologies
Briefly: Factor XIa enzyme inhibition assay (chromogenic substrate S-2366), Ki. The following applies: substrate S-2366, pH 7.4. The method in brief:
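Purified human Factor XIa ([…] final) with chromogenic substrate S-2366 (0.0002-0.001 M) in 50 mM HEPES pH 7.4, 145 mM NaCl, 5 mM KCl, 0.1% PEG 8000. Velocities measured over 20-180 minutes with and without inhibitor; Ki derived assuming competitive inhibition, e.g. Ki=IC50/(1+S/Km).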

T2 sequence (P03951 388-625 limits assumed): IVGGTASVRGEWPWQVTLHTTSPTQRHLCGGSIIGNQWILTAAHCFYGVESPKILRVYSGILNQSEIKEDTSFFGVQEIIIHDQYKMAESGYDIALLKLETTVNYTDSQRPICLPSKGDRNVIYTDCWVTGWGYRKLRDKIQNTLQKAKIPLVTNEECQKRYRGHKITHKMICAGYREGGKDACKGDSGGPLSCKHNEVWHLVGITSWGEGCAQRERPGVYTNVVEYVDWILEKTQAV
T2 sequence (P03951 19-387 partner limits assumed): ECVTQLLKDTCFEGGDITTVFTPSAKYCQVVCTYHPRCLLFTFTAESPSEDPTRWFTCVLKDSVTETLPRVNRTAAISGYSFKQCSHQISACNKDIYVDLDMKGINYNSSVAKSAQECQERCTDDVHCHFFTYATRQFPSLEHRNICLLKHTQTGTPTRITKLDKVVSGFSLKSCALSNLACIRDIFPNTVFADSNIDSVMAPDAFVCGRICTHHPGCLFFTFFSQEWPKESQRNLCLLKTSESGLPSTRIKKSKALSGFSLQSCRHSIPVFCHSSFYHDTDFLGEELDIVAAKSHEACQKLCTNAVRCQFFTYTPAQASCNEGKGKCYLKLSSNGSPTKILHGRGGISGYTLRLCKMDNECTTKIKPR
T1 sequence (P03952 391-638 limits assumed): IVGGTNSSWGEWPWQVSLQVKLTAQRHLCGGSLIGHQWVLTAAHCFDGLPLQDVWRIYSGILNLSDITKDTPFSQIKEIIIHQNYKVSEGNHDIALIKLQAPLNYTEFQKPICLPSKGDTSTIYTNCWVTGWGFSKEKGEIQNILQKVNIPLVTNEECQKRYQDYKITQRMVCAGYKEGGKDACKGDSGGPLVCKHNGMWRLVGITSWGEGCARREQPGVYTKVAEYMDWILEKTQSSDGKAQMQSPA
T1 sequence (P03952 20-390 partner limits assumed): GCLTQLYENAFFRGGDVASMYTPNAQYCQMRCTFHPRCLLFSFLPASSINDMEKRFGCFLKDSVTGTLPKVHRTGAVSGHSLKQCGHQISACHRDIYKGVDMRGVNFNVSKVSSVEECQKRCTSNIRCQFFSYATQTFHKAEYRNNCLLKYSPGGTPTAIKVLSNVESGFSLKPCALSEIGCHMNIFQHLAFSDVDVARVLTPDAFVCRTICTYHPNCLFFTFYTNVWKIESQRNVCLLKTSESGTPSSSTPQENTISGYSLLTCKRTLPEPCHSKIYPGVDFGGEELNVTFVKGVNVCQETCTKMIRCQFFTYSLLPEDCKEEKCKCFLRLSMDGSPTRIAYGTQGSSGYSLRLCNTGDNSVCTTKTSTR

For `O=C(O)c1ccc(NC(=O)[C@H](Cc2ccccc2)n2cnc(-c3c(-n4cc(Cl)nn4)ccc(Cl)c3F)cc2=O)cc1` [Example 9, (S)-4-(2-(4-(3-chloro-6-(4-chloro-1H-1,2,3-triazol-1-yl)-2-fluorophenyl)-6-oxopyrimidin-1(6H)-yl)-3-phenylpropanamido)benzoic Acid], the Ki (usually a measure of affinity in units of concentration, obtained from inhibition or displacement) in test [1] came out at 36 nM; in test [3] it was 0.64 nM. Besides, the “aPTT (IC1.5×)” value in test [2] stood at 0.91 µM.

Regarding `Cc1c(CC(C(=O)Nc2ccc(C(=O)O)cc2)N2CCC(c3c(F)ccc(Cl)c3F)=CC2=O)ccc2cn[nH]c12` (stereo not drawn) [Example 135, 4-(2-(4-(3-chloro-2,6-difluorophenyl)-6-oxo-3,6-dihydropyridin-1(2H)-yl)-3-(7-methyl-1H-indazol-6-yl)propanamido)benzoic Acid], the Ki is 1870 nM in test [1] and 199 nM in test [3]. The “aPTT (IC1.5×)” value in test [2] was 1.74 µM.

Take `O=C(O)c1ccc(NC(=O)[C@H](Cc2ccccc2)n2cnc(-c3cc(Cl)ccc3-n3cc(Cl)nn3)cc2=O)cc1` [Example 15, (S)-4-(2-(4-(5-chloro-2-(4-chloro-1H-1,2,3-triazol-1-yl)phenyl)-6-oxopyrimidin-1(6H)-yl)-3-phenylpropanamido)benzoic Acid]: the figures for the Ki in test [1] and in test [3] were 189 nM and 2.5 nM, respectively. The “aPTT (IC1.5×)” value in test [2] amounted to 1.74 µM.
